Measured values reported in patent publication US11026957B2, “Method to treat lipid dysregulation by modulation of proprotein convertase subtilisin/kexin type 9 (PCSK9) protein activity with small molecule ligands” (SRX CARDIO, LLC, priority 2014, dated 2021).

Molecular target: recombinant human PCSK9 (Homo sapiens, UniProt Q8NBP7)
Assay: Direct binding measurement by backscatter interferometry
Conditions: 6-point binding curve, ±8 nM, r^2 of 0.86
Procedure: Direct binding was measured using backscatter interferometry, which has been previously described in “Interferometric detection system and method” (EP 1210581), “Free solution measurement of molecular interactions by backscattering interferometry” (WO 2009039466), “Temperature-stable interferometer” (WO 2009076372), and “Improved event detection for back-scattering interferometry” (WO 2013158300); which are incorporated herein in their entirety by reference.

Sequence of recombinant human PCSK9 (Q8NBP7 153-692): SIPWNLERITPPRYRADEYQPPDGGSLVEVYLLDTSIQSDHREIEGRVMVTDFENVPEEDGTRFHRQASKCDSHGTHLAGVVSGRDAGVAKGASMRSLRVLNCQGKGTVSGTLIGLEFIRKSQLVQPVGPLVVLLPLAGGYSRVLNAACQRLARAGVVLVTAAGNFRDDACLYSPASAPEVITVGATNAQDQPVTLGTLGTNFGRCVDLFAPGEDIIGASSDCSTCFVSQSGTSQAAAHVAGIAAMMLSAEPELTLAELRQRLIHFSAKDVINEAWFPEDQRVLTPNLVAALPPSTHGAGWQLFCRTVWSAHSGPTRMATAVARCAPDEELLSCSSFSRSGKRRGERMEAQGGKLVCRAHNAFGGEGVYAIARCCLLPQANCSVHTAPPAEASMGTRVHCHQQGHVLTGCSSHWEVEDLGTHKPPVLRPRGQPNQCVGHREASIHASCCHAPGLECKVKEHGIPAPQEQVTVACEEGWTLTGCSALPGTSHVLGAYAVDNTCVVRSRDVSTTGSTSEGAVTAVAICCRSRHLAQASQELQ

Kd: 24 nM
Compound: C/C(=N\Nc1nnn[nH]1)C(=O)N1CCC(c2ccccc2)CC1 [SRX200, (E)-2-(2-(1H-tetrazol-5-yl)hydrazono)-1-(4-phenylpiperidin-1-yl)propan-1-one]
